Test results as given in paper PMC2748256 (ACS chemical biology, 2009).

Target: DM2 (RNA7)-MBNL-1 complex
Assay type: biochemical
Conditions: ligand added to well containing immobilized RNA7, then MBNL-1

In the case of `C#CCCCC(=O)NC[C@@H]1O[C@@H](O[C@H]2[C@H](O)[C@@H](O[C@@H]3O[C@@H](CO)[C@H](O)[C@@H](N)[C@@H]3O)[C@H](N)C[C@@H]2N)[C@@H](O)[C@H](O)[C@H]1O` [Compound 1, 6′-N-5-hexynoate kanamycin A], the IC50 is reported as 220 µM.
